Where a SMILES comes first, the peptide text is derived from it.

For experiment [1], the target named is T1, Erythropoietin receptor (Homo sapiens) (UniProt P19235).
T1 sequence (whole entry): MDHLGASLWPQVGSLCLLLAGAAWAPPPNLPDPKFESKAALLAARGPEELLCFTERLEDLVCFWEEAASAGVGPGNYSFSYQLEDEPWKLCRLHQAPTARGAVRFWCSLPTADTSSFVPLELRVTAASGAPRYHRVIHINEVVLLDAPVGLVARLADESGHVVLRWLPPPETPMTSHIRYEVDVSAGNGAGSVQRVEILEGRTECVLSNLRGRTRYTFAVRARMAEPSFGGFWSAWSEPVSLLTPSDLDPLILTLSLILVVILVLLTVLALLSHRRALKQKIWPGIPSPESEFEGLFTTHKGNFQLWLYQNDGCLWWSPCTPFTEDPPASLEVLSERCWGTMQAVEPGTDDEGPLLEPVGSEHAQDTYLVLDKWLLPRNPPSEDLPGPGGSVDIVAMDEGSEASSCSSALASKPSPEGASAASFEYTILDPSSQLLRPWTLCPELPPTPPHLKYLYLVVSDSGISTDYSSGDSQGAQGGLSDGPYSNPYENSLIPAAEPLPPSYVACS
In words: Compound was evaluated for inhibition of [125I]EPO binding to Erythropoietin receptor (EBP) at a concentration of 50 uM.

The target of experiment [2] is T2, Erythropoietin receptor (Homo sapiens, UniProt P19235).
T2 sequence (P19235 whole entry): T1 sequence (whole entry)
Briefly: Compound was evaluated for inhibition of [125I]-EPO binding to Erythropoietin receptor (EBP).

Experiment [3] deals with T2, Erythropoietin receptor. In words: Compound was evaluated for inhibition of [125I]EPO binding to Erythropoietin receptor (EBP).
Experiment [4] addresses T1, Erythropoietin receptor (Homo sapiens). Briefly: Compound was evaluated for inhibition of [125I]EPO binding to EBP (erythropoietin receptor) at a concentration of 50 uM.

Regarding `COC(=O)[C@H](CCCCNC(=O)OC(C)(C)C)N(C/C=C/c1cccc(Oc2ccccc2)c1)C/C=C/c1cccc(Oc2ccccc2)c1`, the inhibition in experiment [1] was determined as 0%.

As for `COC(=O)[C@H](CCCCN)N(C/C=C/c1cccc(Oc2ccc(C(C)(C)C)cc2)c1)C/C=C/c1cccc(Oc2ccc(C(C)(C)C)cc2)c1`, in experiment [1], the inhibition amounted to 18%.

On to `COC(=O)[C@H](CCCCN)N(Cc1ccc(OCc2ccccc2)cc1)Cc1cccc([N+](=O)[O-])c1`, for which, in experiment [1], the inhibition worked out at 37%.

Compound `O=C(O)CC[C@H](NC/C=C/c1cccc(Oc2ccccc2)c1)C(=O)O` came in with an inhibition in experiment [1] of 0%.

Compound `COC(=O)[C@H](CCCCNC(=O)OC(C)(C)C)N(Cc1ccc(OCc2ccccc2)cc1)Cc1ccc(OCc2ccccc2)cc1` displayed an inhibition in experiment [1] of 5%.

As for `CC(C)(C)c1ccc(Oc2cccc(/C=C/CN(C/C=C/c3cccc(Oc4ccc(C(C)(C)C)cc4)c3)[C@@H](CCC(=O)O)C(=O)O)c2)cc1`, the concentration for half-maximal inhibition (IC50) at Erythropoietin receptor [2] worked out at 30 µM. In experiment [1], this compound gave an inhibition of 78%.

Regarding `COC(=O)[C@H](CCCCNC(=O)OC(C)(C)C)N(Cc1ccc(OCc2ccccc2)cc1)Cc1cccc([N+](=O)[O-])c1`, the inhibition in experiment [1] turned out to be 24%.

As to `COC(=O)[C@H](CCCCN)N(Cc1ccc(OCc2ccccc2)cc1)Cc1ccc(OCc2ccccc2)cc1`, the inhibition in experiment [1] was determined as 54%.

In turn, `O=C(O)CC[C@H](C(=O)NCCOCCOCCNC(=O)[C@H](CCC(=O)O)N(Cc1ccc(OCc2ccccc2)cc1)Cc1ccc(OCc2ccccc2)cc1)N(Cc1ccc(OCc2ccccc2)cc1)Cc1ccc(OCc2ccccc2)cc1` gave an inhibition in experiment [1] of 79%.

The compound `CC(C)C[C@@H]1NC(=O)[C@H]([C@@H](C)O)NC(=O)[C@H](Cc2c[nH]c3ccccc23)NC(=O)[C@H](C(C)C)NC(=O)[C@@H](NC(=O)[C@H](CCCCN)NC(=O)[C@@H]2CCCN2C(=O)[C@H](CCC(N)=O)NC(=O)CNC(=O)CN)CSSC[C@@H](C(=O)N[C@@H](Cc2ccc(O)cc2)C(=O)N[C@@H](CO)C(=O)N[C@H](C(=O)NCC(=O)NCC(N)=O)[C@@H](C)O)NC(=O)[C@H](Cc2c[nH]cn2)NC(=O)[C@H](Cc2ccccc2)NC(=O)CNC(=O)[C@@H]2CCCN2C1=O` (HELM PEPTIDE1{G.G.Q.P.K.C.V.W.T.L.P.G.F.H.C.Y.S.T.G.G.[am]}$PEPTIDE1,PEPTIDE1,6:R3-15:R3$$$V2.0) had a half-maximal inhibitory concentration (IC50) at Erythropoietin receptor [3] of 5 µM.

With `COC(=O)[C@H](CCCCNC(N)=O)N(C/C=C/c1cccc(Oc2ccccc2)c1)C/C=C/c1cccc(Oc2ccccc2)c1`, on Erythropoietin receptor [2], the IC50 came to 35 µM. The same compound displayed an inhibition in experiment [1] of 73%.

For `COC(=O)[C@H](CCCCNS(C)(=O)=O)N(C/C=C/c1cccc(Oc2ccccc2)c1)C/C=C/c1cccc(Oc2ccccc2)c1`, the IC50 on Erythropoietin receptor [2] was found to be 35 µM. The compound also had an inhibition in experiment [1] of 77%.

At Erythropoietin receptor [2], `NCCCC[C@H](C(=O)NCCOCCOCCNC(=O)[C@H](CCCCN)N(Cc1ccc(OCc2ccccc2)cc1)Cc1ccc(OCc2ccccc2)cc1)N(Cc1ccc(OCc2ccccc2)cc1)Cc1ccc(OCc2ccccc2)cc1` gave an IC50 of 2 µM. The compound further displayed an inhibition in experiment [1] of 51%.

`O=C(O)CCC(=O)NCCCC[C@H](C(=O)NCCOCCOCCNC(=O)[C@H](CCCCNC(=O)CCC(=O)O)N(Cc1ccc(OCc2ccccc2)cc1)Cc1ccc(OCc2ccccc2)cc1)N(Cc1ccc(OCc2ccccc2)cc1)Cc1ccc(OCc2ccccc2)cc1` came in with a half-maximal inhibitory concentration (IC50) at Erythropoietin receptor [2] of 1.5 µM. In addition, the inhibition in experiment [1] was determined as 93%.

As to `O=C(O)CCCC(=O)NCCCC[C@H](C(=O)NCCCOCCCCOCCCNC(=O)[C@H](CCCCNC(=O)CCCC(=O)O)N(Cc1ccc(OCc2ccccc2)cc1)Cc1ccc(OCc2ccccc2)cc1)N(Cc1ccc(OCc2ccccc2)cc1)Cc1ccc(OCc2ccccc2)cc1`, the IC50 on Erythropoietin receptor [2] was determined as 4 µM. In addition, the inhibition in experiment [1] is 82%.

For `COC(=O)[C@H](CCC(=O)O)N(C/C=C/c1cccc(Oc2ccc(Cl)c(Cl)c2)c1)C/C=C/c1cccc(Oc2ccc(Cl)c(Cl)c2)c1`, the inhibition in experiment [1] stood at 32%.

Consider `O=C(O)CCCC(=O)NCCCC[C@@H](C(=O)NCCCOCCOCCOCCCNC(=O)[C@H](CCCCNC(=O)CCCC(=O)O)N(Cc1ccc(OCc2ccccc2)cc1)Cc1ccc(OCc2ccccc2)cc1)N(Cc1ccc(OCc2ccccc2)cc1)Cc1ccc(OCc2ccccc2)cc1`, for which the 50% inhibitory concentration (IC50) on Erythropoietin receptor [2] stood at 10 µM. In addition, the inhibition in experiment [1] came out at 78%.

`COC(=O)[C@H](CCCCNC(=O)OC(C)(C)C)N(C/C=C/c1cccc(Oc2ccc(C(C)(C)C)cc2)c1)C/C=C/c1cccc(Oc2ccc(C(C)(C)C)cc2)c1` showed an inhibition in experiment [1] of 0%.

`COC(=O)[C@H](COC(C)(C)C)N(C/C=C/c1cccc(Oc2ccccc2)c1)C/C=C/c1cccc(Oc2ccccc2)c1` showed an inhibition in experiment [1] of 0%.

For `COC(=O)[C@H](CCC(=O)OC(C)(C)C)NC/C=C/c1cccc(Oc2ccccc2)c1`, in experiment [4], the inhibition was found to be 6%.

In turn, `O=C(O)CC[C@@H](C(=O)O)N(C/C=C/c1cccc(Oc2ccccc2)c1)C/C=C/c1cccc(Oc2ccccc2)c1` registered a 50% inhibitory concentration (IC50) at Erythropoietin receptor [2] of 42 µM. In experiment [1], this compound had an inhibition of 78%.

On Erythropoietin receptor [2], `O=C(O)CCCC(=O)NCCCC[C@H](C(=O)NCCCCCCCCCCCCNC(=O)[C@H](CCCCNC(=O)CCCC(=O)O)N(Cc1ccc(OCc2ccccc2)cc1)Cc1ccc(OCc2ccccc2)cc1)N(Cc1ccc(OCc2ccccc2)cc1)Cc1ccc(OCc2ccccc2)cc1` registered an IC50 of 85 µM. In addition, in experiment [1], the inhibition came out at 55%.

The compound `O=C(O)C[C@@H](C(=O)O)N(C/C=C/c1cccc(Oc2ccccc2)c1)C/C=C/c1cccc(Oc2ccccc2)c1` returned an inhibition in experiment [1] of 81%.

In experiment [1], `CC(C)(C)OC(=O)C[C@@H](C(=O)OC(C)(C)C)N(C/C=C/c1cccc(Oc2ccccc2)c1)C/C=C/c1cccc(Oc2ccccc2)c1` displayed an inhibition of 20%.

As for `O=C(O)CCCC(=O)NCCCC[C@H](C(=O)NCCOCCOCCNC(=O)[C@H](CCCCNC(=O)CCCC(=O)O)N(Cc1ccc(OCc2ccccc2)cc1)Cc1ccc(OCc2ccccc2)cc1)N(Cc1ccc(OCc2ccccc2)cc1)Cc1ccc(OCc2ccccc2)cc1`, at Erythropoietin receptor [2], the IC50 came to 1.5 µM. The same compound registered an inhibition in experiment [1] of 88%.

`O=C(O)[C@H](CO)NC/C=C/c1cccc(Oc2ccccc2)c1` displayed an inhibition in experiment [1] of 23%.

In the case of `COC(=O)[C@H](CCCCNC(=O)OC(C)(C)C)NC/C=C/c1cccc(Oc2ccccc2)c1`, the inhibition in experiment [1] was 20%.

In turn, `O=C(O)C[C@@H](C(=O)NCCCOCCOCCOCCCNC(=O)[C@H](CC(=O)O)N(Cc1ccc(OCc2ccccc2)cc1)Cc1ccc(OCc2ccccc2)cc1)N(Cc1ccc(OCc2ccccc2)cc1)Cc1ccc(OCc2ccccc2)cc1` had a half-maximal inhibitory concentration (IC50) on Erythropoietin receptor [2] of 28 µM. For the same compound, the inhibition in experiment [1] stood at 66%.

For `COC(=O)[C@H](CCCCNC(=O)OC(C)(C)C)N(Cc1cccc(OCc2ccccc2)c1)Cc1cccc(OCc2ccccc2)c1`, the inhibition in experiment [1] is 7%.

For the compound `O=C(O)CCC(=O)NCCCC[C@H](C(=O)NCCCCCCCCCCCCNC(=O)[C@H](CCCCNC(=O)CCC(=O)O)N(Cc1ccc(OCc2ccccc2)cc1)Cc1ccc(OCc2ccccc2)cc1)N(Cc1ccc(OCc2ccccc2)cc1)Cc1ccc(OCc2ccccc2)cc1`, on Erythropoietin receptor [2], the half-inhibitory concentration (IC50) stood at 100 µM. Further, in experiment [1], the inhibition was determined as 56%.

At Erythropoietin receptor [2], `C[C@@H](C(=O)O)N(C/C=C/c1cccc(Oc2ccccc2)c1)C/C=C/c1cccc(Oc2ccccc2)c1` returned an IC50 of 40 µM. For the same compound, the inhibition in experiment [1] was found to be 72%.

With `COC(=O)[C@H](CCCCN)N(Cc1cccc(OCc2ccccc2)c1)Cc1cccc(OCc2ccccc2)c1`, on Erythropoietin receptor [2], the IC50 was 10 µM. The compound further registered an inhibition in experiment [1] of 59%.

Consider `COC(=O)[C@H](CO)NC/C=C/c1cccc(Oc2ccccc2)c1`, for which the inhibition in experiment [1] was found to be 28%.

On to `COC(=O)[C@H](CCC(=O)OC(C)(C)C)N(C/C=C/c1cccc(Oc2ccccc2)c1)C/C=C/c1cccc(Oc2ccccc2)c1`, for which the inhibition in experiment [1] worked out at 0%.

Consider `COC(=O)[C@H](CCC(=O)O)NC/C=C/c1cccc(Oc2ccccc2)c1`, for which the inhibition in experiment [1] stood at 6%.

For `O=C(O)C[C@H](C(=O)NCCCOCCCCOCCCNC(=O)[C@H](CC(=O)O)N(Cc1ccc(OCc2ccccc2)cc1)Cc1ccc(OCc2ccccc2)cc1)N(Cc1ccc(OCc2ccccc2)cc1)Cc1ccc(OCc2ccccc2)cc1`, the IC50 at Erythropoietin receptor [2] is 18 µM. In experiment [1], this compound gave an inhibition of 75%.

For `O=C(O)CN(C/C=C/c1cccc(Oc2ccccc2)c1)C/C=C/c1cccc(Oc2ccccc2)c1`, the inhibition in experiment [1] was 45%.

On Erythropoietin receptor [2], `O=C(O)CCC(=O)NCCCC[C@@H](C(=O)NCCCOCCOCCOCCCNC(=O)[C@H](CCCCNC(=O)CCC(=O)O)N(Cc1ccc(OCc2ccccc2)cc1)Cc1ccc(OCc2ccccc2)cc1)N(Cc1ccc(OCc2ccccc2)cc1)Cc1ccc(OCc2ccccc2)cc1` returned an IC50 of 7 µM. The compound also displayed an inhibition in experiment [1] of 77%.

The compound `CC(C)(C)OC(=O)CC[C@H](NC/C=C/c1cccc(Oc2ccccc2)c1)C(=O)O` had an inhibition in experiment [1] of 0%.

At Erythropoietin receptor [2], `COC(=O)[C@H](CO)N(C/C=C/c1cccc(Oc2ccccc2)c1)C/C=C/c1cccc(Oc2ccccc2)c1` displayed an IC50 of 145 µM. The inhibition in experiment [1] was found to be 57%.

For the compound `COC(=O)[C@H](COC(C)(C)C)NC/C=C/c1cccc(Oc2ccccc2)c1`, in experiment [1], the inhibition was determined as 8%.

On Erythropoietin receptor [2], `O=C(O)CCC(=O)NCCCC[C@H](C(=O)NCCCOCCCCOCCCNC(=O)[C@H](CCCCNC(=O)CCC(=O)O)N(Cc1ccc(OCc2ccccc2)cc1)Cc1ccc(OCc2ccccc2)cc1)N(Cc1ccc(OCc2ccccc2)cc1)Cc1ccc(OCc2ccccc2)cc1` gave an IC50 of 6 µM. Moreover, the inhibition in experiment [1] was found to be 65%.

For the compound `O=C(O)CC[C@@H](C(=O)O)N(C/C=C/c1cccc(Oc2cccc(C(F)(F)F)c2)c1)C/C=C/c1cccc(Oc2cccc(C(F)(F)F)c2)c1`, the IC50 on Erythropoietin receptor [2] amounted to 35 µM. The compound also returned an inhibition in experiment [1] of 70%.

The values above are taken from ChEMBL document CHEMBL1133297, “Synthesis and erythropoietin receptor binding affinities of N,N-disubstituted amino acids” (Bioorg Med Chem Lett, 2000).
